Test results: US20240294504A1, “COMPOUNDS, COMPOSITIONS, AND METHODS FOR INDUCING ANTIMICROBIAL INTRACELLULAR ACTIVITY AND FOR PREVENTING AND TREATING MICROBIAL INFECTIONS” (The Broad Institute, Inc., priority 2021, published 2024)
Where “and” joins values, the source holds several entries; their conditions need not be identical. Equal entries are not always repeated. Entries after “also recorded” stand apart in the source; their conditions may differ. Where two headings read alike, the source gives them in different places.

Tests used:
[1] = system: intracellular K. pneumoniae; assay: Intracellular survival of K. pneumoniae (RB120) in bladder epithelial cells (gentamicin protection assay, CFUs from plated cell lysates); type: cell-based, Klebsiella pneumoniae; details: for EC50: 24 hours of treatment, bladder epithelial cells, read-out: EC50 of dose-dependent killing / antimicrobial activity against intracellular K. pneumoniae
[2] = system: intracellular carbapenem-tolerant K. pneumoniae; details: primary screen 5 μM, retest 2.5 to 20 μM
Experimental: Bladder epithelial cells were infected with lux-expressing K. pneumoniae and incubated with the carbapenem antibiotic meropenem (see FIG. 1A), after killing extracellular bacteria with a high dose of gentamicin shortly after the infection. Intracellular survival was assessed by determining the luminescence intensity of intracellular bacteria that had been liberated by host cell lysis and outgrown in LB medium for 7 hours. […] Mean and SD of Z-factors of n=32 plates from 4 batches (independent outgrowth events) shown. […] Partial hits and hits involving known antibiotics were excluded. Hits from the primary screen were retested in a secondary screen at different concentration.

[3] = system: post-lanosterol cholesterol biosynthesis pathway; assay: LC-MS based lipidomics of sterol intermediates in host cells; type: cell-based, human; details: 10 μM
Experimental: FIGS. 17A-17C. LC-MS based lipidomics evaluation of effect of other available post-lanosterol cholesterol biosynthesis inhibitors on infection. (FIG. 17A) Post-lanosterol pathway. (FIG. 17B) Effect of 10 μM AY9944 or 10 μM (S)-crizotinib after 2 hours of treatment (FIG. 17C) or after 24 hours of treatment.

[4] = system: extracellular K. pneumoniae; type: cell-based, Klebsiella pneumoniae
interferon beta response = assay: Interferon beta response in infected bladder epithelial cells; type: cell-based, human; design: dose or concentration left out as unconfirmed; details: 24 hours (24 to 48 hours post infection)
Experimental: FIG. 7. […] Infected cells were treated for 24 hours with […] (S)-crizotinib, AY9944 or DMSO control from 24 to 48 hours post infection.

SARS-COV-2 = SARS-COV-2 infection of veroE6 kidney epithelial cells (immunofluorescence microscopy); type: cell-based
Gram-positive bacteria = details: cited from earlier work
[5] = system: Pseudomonas aeruginosa (PAO1); assay: Intracellular survival of P. aeruginosa in bladder epithelial cells; type: cell-based; details: 10 μM, 24 hours
[6] = system: K. pneumoniae ST258 expressing mNeon (UCI_38DwbaP_mNeon); assay: Confocal microscopy of fluorescent Klebsiella-containing vacuoles (LAMP1) in bladder epithelial cells; type: cell-based, Klebsiella pneumoniae; details: 10 μM, 24 hours (24 to 48 hours post infection)
[7] = system: intracellular K. pneumoniae; assay: Intracellular survival of K. pneumoniae in human lung epithelial cell line A549; type: cell-based, Klebsiella pneumoniae; details: 10 μM, over 2 hours
[8] = system: uropathogenic Escherichia coli (UPEC, UTI89); assay: Intracellular survival of UPEC in bladder epithelial cells; type: cell-based; details: 10 μM, 4 hours
cancer cells = details: cited from earlier work
[9] = system: intracellular Salmonella Typhimurium; assay: Intracellular survival of Salmonella Typhimurium in host cells; type: cell-based
tumor growth = details: mouse, in vivo; cited from earlier work
[10] = 10 μM, after 24 hours of treatment
[11] = Klebsiella pneumoniae, Epithelial cell
[12] = 24 h treatment of infected bladder cells

With `CC(C)Cn1cnc2c(N)nc3ccccc3c21` [imiquimod] the “anti-infective / antimicrobial activity of TLR7 agonist” value ([1]; after 24 hours of treatment) was “moderate anti-infective activity; also recorded: Modest antimicrobial activity”.

For `C[C@@H](Oc1cc(-c2cnn(C3CCNCC3)c2)cnc1N)c1c(Cl)ccc(F)c1Cl` [(R)-crizotinib], the “killing % of the intracellular K. pneumoniae population” value [1, 10] was 99%, the EC50 [1, 11] was 1100 nM and the “outcome in high-throughput screen” value [2] was “top hits”. For the same compound, the “host cell cytotoxicity against bladder epithelial cells” value (“host cell cytotoxicity” below) (bladder epithelial cells) was “displayed host cell cytotoxicity in a dose-dependent manner”.

In the case of `CNc1cc(-c2cccc(Cl)c2Cl)nc(N)n1` [TH287], the “intracellular antibacterial activity after 4 hours of treatment” value ([1]; 10 μM) is reported as “did not display intracellular antibacterial activity”, the “intracellular antibacterial activity after 24 hours of treatment” value ([1]; 10 μM) is reported as “modest antibacterial activity” and the “host cell cytotoxicity” value (bladder epithelial cells; [12]) is reported as “dose dependent toxicity”.

With `Clc1ccccc1CNCC1CCC(CNCc2ccccc2Cl)CC1` (centres unmarked) [AY 9944] the “killed % of the intracellular population in 60 minutes” value ([1]; 10 uM, 60 minutes) was “approx. 80%”, the EC50 [1, 11] was 940 nM and the “FF-MAS, fold increased” value ([3]; 2 hour treatment) was 4.2 fold. For the same compound, the “dehydrodesmosterol, fold increased” value ([3]; 2 hour treatment) was 1.2 fold, the “lanosterol, fold increased” value ([3]; 2 hour treatment) was 1.2 fold and the “FF-MAS, fold increased” value ([3]; 24 hour treatment) was 11.9 fold. For the same compound, the “dehydrodesmosterol, fold increased” value ([3]; 24 hour treatment) was 2.9 fold, the “lanosterol, fold increased” value ([3]; 24 hour treatment) was 3 fold and the “antibacterial activity against K. pneumoniae grown in axenic medium” value [4] was “no host cell toxicity or antimicrobial activity in axenic medium”. For the same compound, the “outcome in high-throughput screen” value [2] was “hit”, the “interferon beta response in bladder epithelial cells infected with K. pneumoniae” value (interferon beta response) was “do not induce an interferon beta response” and the “host cell cytotoxicity” value (bladder epithelial cells; [12]) was “no host cell toxicity”. For the same compound, the EC50 (SARS-COV-2; Severe acute respiratory syndrome coronavirus 2, Vero C1008, read-out: EC50 of antiviral activity in SARS-COV-2 infections) was 1000 nM.

In the case of `C[C@@H](Oc1cc(-c2cnn(C3CCNCC3)c2)cnc1N)c1c(Cl)ccc(F)c1Cl` [crizotinib], the “concentration for growth inhibition of Gram-positive bacteria” value (Gram-positive bacteria) is given as greater than 20 µM.

With `Nc1nc(NC2CC2)cc(-c2cccc(Cl)c2Cl)n1` [TH588] the “intracellular antibacterial activity after 4 hours of treatment” value ([1]; 10 μM) was “did not display intracellular antibacterial activity; also recorded: did not induce intracellular antibacterial activity”, the “intracellular antibacterial activity after 24 hours of treatment” value ([1]; 10 μM) was “modest antibacterial activity” and the “host cell cytotoxicity” value (bladder epithelial cells; [12]) was “dose dependent toxicity”.

With `C[C@H](Oc1cc(-c2cnn(C3CCNCC3)c2)cnc1N)c1c(Cl)ccc(F)c1Cl` [(S)-crizotinib] the “antibacterial activity in bladder epithelial cells infected with Pseudomonas aeruginosa” value [5] was “antibacterial activity”, the “killing % of the intracellular population within 15 minutes” value ([1]; 10 μM, 15 minutes) was 82% and 80% and the “% of the intracellular population killed after 2 hours of treatment” value ([1]; 10 μM, 2 hours) was 99%. For the same compound, the “effect of removal of gentamicin from the culture medium on antibacterial activity” value ([1]; 10 μM, 2 hours, presence vs absence of gentamicin) was “had no impact on the potent antibacterial activity”, the “killing % of the intracellular K. pneumoniae population” value [1, 10] was 99% and the “activity against intracellular ciprofloxacin-tolerant K. pneumoniae persisters” value ([1]; 4 mg/ml ciprofloxacin for 14 hours, then (S)-crizotinib for 6 hours in the presence of ciprofloxacin) was “dose-dependent antibacterial activity”. The “increase of extracellular bacteria (exocytosis of Klebsiella-containing compartments)” value ([1]; 2 hours, absence of gentamicin, supernatants) was “did not result in a significant increase of extracellular bacteria”, the EC50 [1] was 1700 nM and the “reduction in the median fluorescence intensity of mNeon-expressing Klebsiella in LAMP1 containing compartments” value [6] was 33%. For the same compound, the “reduction of detected Klebsiella containing compartments” value [6] was 63%, the “antiinfective activity against intracellular K. pneumoniae in A549 lung epithelial cells” value [7] was “rapid antiinfective activity” and the “antibacterial activity against K. pneumoniae grown in axenic medium” value [4] was “did not display antibacterial activity”. The “outcome in high-throughput screen” value [2] was “top hits”, the “antibacterial activity in bladder epithelial cells infected with UPEC” value [8] was “antibacterial activity” and the “interferon beta response in bladder epithelial cells infected with K. pneumoniae” value (interferon beta response) was “do not induce an interferon beta response”. The “inhibits colony formation of cancer cells” value (cancer cells) was “low micromolar concentrations”, the “antibacterial activity in cells infected with Salmonella Typhimurium” value ([9]; HeLa epithelial cells, 10 μM, 20 hours (4 to 24 hours post infection)) was “antibacterial activity” and the “host cell cytotoxicity” value (bladder epithelial cells) was “did not display cytotoxicity”. The “tumor growth in mice” value (tumor growth) was “suppress tumor growth in mice” and the “antiviral activity in epithelial cells infected with SARS-COV-2” value (SARS-COV-2; veroE6, MOI 0.1, 24 h treatment) was “induced antiviral activity in epithelial cells infected with SARS-COV-2 in a dose dependent manner”.

With `C[C@@H](O)[C@H]1C(=O)N2C(C(=O)O)=C(S[C@@H]3CN[C@H](C(=O)N(C)C)C3)[C@H](C)[C@H]12` [meropenem] the “impact on the viability of intracellular K. pneumoniae” value ([1]; meropenem 10 μg/ml (150 fold of MIC), 20 hours) was “no impact; also recorded: ineffective” and the “killed % of intracellular Salmonella Typhimurium population” value ([9]; meropenem 10 μg/ml, after 20 hours of treatment) was 87%.
